Reference: patent US20160158415A1, “METHOD FOR DETOXIFYING A BIOLOGICAL TISSUE” (Sorin Group Italia S.r.l., priority 2010, published 2016)
Entries after “also recorded” stand apart in the source; their conditions may differ.

Assay: Fuchsine staining of free aldehyde groups on fixed, detoxified tissue (observed colour)
Parameters: species or system bovine
Details: FIG. 1 samples; detoxified at room temperature about 24 hours; homocysteic acid 1.00% w/v or taurine 0.70% w/v in phosphate buffer pH 7; weaker staining = fewer free aldehyde groups
Procedure: The efficacy of the method described herein, and therefore the occurrence of the reaction between the amino groups of the detoxifying molecule and the aldehyde groups present on the fixed tissue, is evaluated by staining of the aldehyde groups remaining free. The greater the staining intensity, the more numerous are the free aldehyde groups and, on the contrary, the weaker (or absent) the staining, the less numerous (or absent) are the free aldehyde groups present on the detoxified tissue.
The detoxification step was conducted at room temperature (20° C.), 40° C. and 50° C., for a period of time of 24 hours, using about 200 ml of solution for each tissue.
a second control sample (FIG. 1B) fixed with glutaraldehyde and detoxified with a solution containing homocysteic acid at a concentration (w/v) of 1.00% in phosphate buffer pH 7;
The tissue samples were immersed in the detoxifying solutions for about 24 hours at room temperature with gentle agitation.
The samples were immersed in the detoxifying solution for about 24 hours with gentle agitation both at room temperature and at 40° C.; the fourth sample detoxified at 50° C. was maintained immersed for 7-8 hours with gentle agitation.
Tissue staining to detect free aldehyde groups uses an acidic solution of rosaniline hydrochloride (fuchsine). […]

N[C@@H](CCS(=O)(=O)O)C(=O)O [homocysteic acid]
Staining observed: less than that of the control sample; also recorded: Violet
